Test results taken from the supplement of paper PMC10307832.

Tests used:
Test in all cases: relative viability (nuclei count vs DMSO), 5 days (fraction); higher = more cells survive
[1] = compound: CCN(CCO)CCCC(C)Nc1ccnc2cc(Cl)ccc12 [Hydroxychloroquine] + CCNC(=O)c1noc(-c2cc(C(C)C)c(O)cc2O)c1-c1ccc(CN2CCOCC2)cc1 [Luminespib] (partner 0.01 µM)
Summary of the method: (§1)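 Lung cancer cell lines were seeded in 1536-well plates and dosed by pin tool the next day, with either a single drug or a fixed anchor-drug dose combined with five library-drug doses (not always all listed) spaced in √10 steps. Five days later, one step fixed the cells and stained their nuclei (final 0.05% Triton X-100, 1% formaldehyde, 1 ug/ml Hoechst), and nuclei were counted on 4× images. Relative viability is the nuclei count in treated wells divided by the count in vehicle wells, and each value is the median of duplicate plates.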

[2] = compound: CCN(CCO)CCCC(C)Nc1ccnc2cc(Cl)ccc12 [Hydroxychloroquine] + CC(C)C[C@H](NC(=O)[C@H](Cc1ccccc1)NC(=O)c1cnccn1)B(O)O [Bortezomib] (partner 0.002 µM)
Summary of the method: as §1

[3] = compound: CCN(CCO)CCCC(C)Nc1ccnc2cc(Cl)ccc12 [Hydroxychloroquine] + CC1(C)CCC(c2ccc(Cl)cc2)=C(CN2CCN(c3ccc(C(=O)NS(=O)(=O)c4ccc(N[C@H](CCN5CCOCC5)CSc5ccccc5)c(S(=O)(=O)C(F)(F)F)c4)cc3)CC2)C1 [Navitoclax] (partner 0.5 µM)
Summary of the method: as §1

[4] = compound: CCN(CCO)CCCC(C)Nc1ccnc2cc(Cl)ccc12 [Hydroxychloroquine] + Cc1nc(Nc2ncc(C(=O)Nc3c(C)cccc3Cl)s2)cc(N2CCN(CCO)CC2)n1 [Dasatinib] (partner 0.075 µM)
Summary of the method: as §1

| Cell Line | relative viability ([1]; first compound 0.5 µM) | relative viability ([1]; first compound 1.581 µM) | relative viability ([1]; first compound 5 µM) | relative viability ([1]; first compound 15.81 µM) | relative viability ([1]; first compound 50 µM) | relative viability ([2]; first compound 0.5 µM) | relative viability ([2]; first compound 1.581 µM) | relative viability ([2]; first compound 5 µM) | relative viability ([2]; first compound 15.81 µM) | relative viability ([2]; first compound 50 µM) | relative viability ([3]; first compound 0.5 µM) | relative viability ([3]; first compound 1.581 µM) | relative viability ([3]; first compound 5 µM) | relative viability ([3]; first compound 15.81 µM) | relative viability ([3]; first compound 50 µM) | relative viability ([4]; first compound 0.5 µM) | relative viability ([4]; first compound 1.581 µM) | relative viability ([4]; first compound 5 µM) | relative viability ([4]; first compound 15.81 µM) | relative viability ([4]; first compound 50 µM) |
| --- | --- | --- | --- | --- | --- | --- | --- | --- | --- | --- | --- | --- | --- | --- | --- | --- | --- | --- | --- | --- |
| PC-14 | 0.17 | 0.151 | 0.17 | 0.173 | 0.154 | 0.783 | 0.959 | 0.925 | 0.788 | 0.852 | 1.03 | 1.07 | 0.979 | 1.01 | 0.962 | 0.232 | 0.199 | 0.253 | 0.213 | 0.29 |
| RERF-LC-KJ | 1.08 | 1.22 | 1.31 | 1.14 | 1.1 | 1.15 | 1.1 | 0.984 | 1.15 | 1.08 | 0.894 | 0.983 | 0.93 | 0.934 | 0.749 | 0.71 | 0.731 | 0.793 | 0.734 | 1.02 |
| SK-LU-1 | 0.21 | 0.209 | 0.21 | 0.205 | 0.187 | 1.27 | 1.04 | 1.29 | 1.18 | 1.37 | 0.747 | 0.96 | 0.851 | 1.21 | 0.658 | 0.214 | 0.168 | 0.174 | 0.16 | 0.17 |
| SW 1573 | 0.399 | 0.153 | 0.203 | 0.174 | 0.193 | 0.966 | 1.17 | 0.931 | 0.947 | 1.1 | 0.971 | 0.884 | 1.01 | 1.03 | 0.972 | 0.465 | 0.379 | 0.506 | 0.414 | 0.676 |
| UMC-11 | – | 1.01 | 1.05 | 1.1 | 1.04 | 0.626 | 0.822 | 0.863 | 0.657 | 1.15 | 0.307 | 0.288 | 0.299 | 0.322 | 0.327 | – | 0.504 | 0.473 | 0.628 | 0.6 |
